Test results as given in patent publication US6358885B1, “Substituted phenylheterocyclic herbicides” (Mississippi State University, priority 1992, dated 2002).

Experiments:
[1] = test system: barnyardgrass; assay: Test B preemergence/postemergence greenhouse plant response rating 0 to 10; format: in vivo, Echinochloa crus-galli; details: for Plant response rating, Barnyardgrass: 0 to 10 scale
Procedure, shortened: (§1)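 Postemergence treatment of plants two to eighteen cm tall ran alongside preemergence treatment of planted seed, each using compound in a non-phytotoxic solvent.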

[2] = test system: chickweed; assay: as above; format: in vivo, Stellaria media; details: for Plant response rating, Chickweed: 0 to 10 scale
Procedure, shortened: as §1

[3] = test system: rape; assay: as above; format: in vivo, Brassica napus; details: 0 to 10 scale
Procedure, shortened: as §1

[4] = test system: wild buckwheat; assay: as above; format: in vivo, Polygonum convolvulus; details: 0 to 10 scale
Procedure, shortened: as §1

[5] = test system: smooth crabgrass; assay: Test G preemergence/postemergence greenhouse plant response rating 0 to 100; format: in vivo, Digitaria ischaemum; details: 0 to 100 scale
Text: Seeds, rhizomes, or plant parts of alfalfa (Medicago ativa), annual bluegrass (Poa annua), bermudagrass (Cynodon dactylon), broadleaf signalgrass (Brachiaria plantaginea), common purslane (Portulaca oleracea), common ragweed (Ambrosia elatior), […] (Paspalum dilatatum), goosegrass (Eleusine indica), guineagrass (Panicum maximum), […] exaltata), johnsongrass (Sorghum halepense), large crabgrass (Digitaria sanguinalis), peanut (Arachis hypoagaea), pitted morningglory (Ipomoea lacunosa), purple nutsedge (Cyperus rotundus), sandbur (Cenchrus echinatus), smooth crabgrass (Digitaria ischaemum) and yellow nutsedge (Cyperus esculentus) were planted into greenhouse pots containing greenhouse planting medium. Each pot contained only one plant species. The test compound was dissolved in a non-phytotoxic solvent and applied preemergence and/or postemergence to the plants. Preemergence applications were made within one day of planting the seeds or plant parts. Postemergence applications were applied when the plants were in the two to four leaf stage (three to twenty cm). Test chemicals were dissolved in a non-phytotoxic solvent and applied preemergence and postemergence to the plants. Untreated control plants and treated plants were placed in the greenhouse and visually evaluated for injury at 13 to 21 days after herbicide application. […] A dash (-) response indicates no test result.

Row | SMILES | Plant response rating (0 to 10 scale), Barnyardgrass ([1]; POSTEMERGENCE, Rate 50 g/ha) | Plant response rating, Barnyardgrass ([1]; POSTEMERGENCE, Rate 200 g/ha) | Plant response rating, Barnyardgrass ([1]; PREEMERGENCE, Rate 50 g/ha) | Plant response rating, Barnyardgrass ([1]; Rate 200 g/ha, PREEMERGENCE) | Plant response rating (0 to 10 scale), Chickweed ([2]; POSTEMERGENCE, Rate 50 g/ha) | Plant response rating, Chickweed ([2]; POSTEMERGENCE, Rate 200 g/ha) | Plant response rating, Chickweed ([2]; PREEMERGENCE, Rate 50 g/ha) | Plant response rating, Chickweed ([2]; Rate 200 g/ha, PREEMERGENCE) | Plant response rating, Rape ([3]; POSTEMERGENCE, Rate 50 g/ha) | Plant response rating, Rape ([3]; POSTEMERGENCE, Rate 200 g/ha) | Plant response rating, Rape ([3]; PREEMERGENCE, Rate 50 g/ha) | Plant response rating, Rape ([3]; Rate 200 g/ha, PREEMERGENCE) | Plant response rating, Wild buckwheat ([4]; POSTEMERGENCE, Rate 50 g/ha) | Plant response rating, Wild buckwheat ([4]; POSTEMERGENCE, Rate 200 g/ha) | Plant response rating, Wild buckwheat ([4]; PREEMERGENCE, Rate 50 g/ha) | Plant response rating, Wild buckwheat ([4]; Rate 200 g/ha, PREEMERGENCE) | Plant response rating, Smooth Crabgras ([5]; POSTEMERGENCE, Rate 125 g/ha) | Plant response rating, Smooth Crabgras ([5]; POSTEMERGENCE, Rate 250 g/ha) | Plant response rating, Smooth Crabgras ([5]; PREEMERGENCE, Rate 125 g/ha) | Plant response rating, Smooth Crabgras ([5]; PREEMERGENCE, Rate 250 g/ha)
1 | Fc1cc(Cl)c(OC2CCCC2)cc1-c1nn2c(c1Cl)CCCC2 [Compound 24] | 4 | 6 | 1 | 4 | 8 | 9 | 0 | 3 | 5 | 7 | 2 | 8 | 10 | 10 | 3 | 5 | 0 | 0 | 0 | 0
2 | CC(C)Oc1cc(-c2nn3c(c2Cl)CCCC3)c(F)cc1Cl [Compound 21] | 6 | 9 | 2 | 7 | 8 | 7 | 2 | 7 | 6 | 10 | 3 | 8 | 10 | 10 | 7 | 9 | 0 | 0 | 70 | 20
3 | CCS(=O)(=O)Oc1cc(-c2nn3c(c2Cl)CCCC3)c(F)cc1Cl [Compound 25] | 3 | 5 | 2 | 6 |  |  | 0 | 9 | 10 | 10 | 0 | 9 | 10 | 10 | 8 | 10 | 0 | 0 | 0 | 0
